Measured values reported in US9585871B2, “Method for treating and curing leishmaniosis using fexinidazole” (Merial Limited, priority 2013, dated 2017).

Test system: L. infantum
Assay: Clinical study in dogs infected with L. infantum: Overall Biological Score
Assay type: in vivo
Set-up: key: additive score of severity of hematology/chemistry changes
Conditions: samples collected on D16 (printed in Day 28 column), Group 1 Block 8 dog removed for toxicity; Glucantime 100 mg/kg dNMA SC once daily

## meglumine antimoniate [Glucantime]
  Overall Biological Score: 5^2
